Laboratory results taken from patent publication US20260098043A1, “POLYCYCLIC COMPOUND AND USE THEREOF” (HAINAN SIMCERE ZAIMING PHARMECEUTICAL CO., LTD., priority 2022, published 2026).
Read-outs that look alike come from different tables or passages of the source.

Tests used:
[1] = molecular target: T1, human Cereblon WT (Homo sapiens, UniProt Q96SW2); test: Cereblon binding experiment (HTRF Human Cereblon Binding Kit, competition with XL665-labeled lenalidomide tracer); settings: 3 h incubation at room temperature, 100% inhibition = 200 μM lenalidomide, read-out: IC50 (binding ability to Cereblon)
T1 construct: purchased
Text: The detection kit (HTRF Human Cereblon Binding Kits) used in the experiment was a detection method for the quantitative measurement of Cereblon WT ligands using HTRF® technology. The detection principle was based on HTRF technology, where the specifically labeled GST antibody (Euroum Cryptate, donor) simultaneously bound to the GST-labeled human Cereblon WT ligand and the XL665-labeled lenalidomide tracer (acceptor). The donor was excited by a light source to induce fluorescence resonance energy transfer (FRET) to the acceptor, and the acceptor emitted fluorescence at a specific wavelength of 665 nm. After the addition of a compound, the compound competed with the XL665-labeled lenalidomide to prevent FRET from occurring. […]
The compounds of the present disclosure were dissolved in DMSO at a stock concentration of 10 mM. […] The HTRF signal in each well was measured using an Envision plate reader. […]
The ratio of acceptor to donor emission signals was calculated for each well: […]
(§1) Data analysis was performed by GraphPad Prism 9. The concentration-response curves were obtained using non-linear four-parameter fitting, and the IC50 for the compound was calculated: […]
The binding ability of the compounds of the present disclosure to Cereblon was determined through the above test, and the measured IC50 values were shown in Table 1.

[2] = test system: MV-4-11 cells; test: Antiproliferative activity for MV-4-11 cells (CellTiter-Glo, 3 days); assay type: cell-based; settings: Homo sapiens, MV4-11, 72 h, read-out: IC50 (antiproliferative activity for MV-4-11 cells)
Experimental: The medium of the target cells MV-4-11 (CBP60522, Cobioer) was removed, and PBS was added for rinsing once, followed by digestion with trypsin (Trypsin-EDTA (0.25%)) for 5 min. After the digestion, 10 mL of a complete medium (IMDM+10% FBS) was added to neutralize the trypsin. The cells were then pipetted and collected, centrifuged at 1000 rpm for 5 min, and counted. The cell density was adjusted to 30,000 cells/mL. 90 μL of the cell suspension was added to a 96-well low-adsorption plate. 200 μL of PBS was added to the edge wells of the 96-well plate. The plate was centrifuged at 1000 rpm for 5 min to form cell spheroids, which were then incubated in a cell incubator overnight. […]
The cells were removed from the incubator and allowed to return to room temperature within 30 min. 50 μL of the CellTiter-Glo® Cell Viability Assay reagent was added, and the plate was shaken to mix thoroughly for 10 min before it was read on the Envision microplate reader.
The antiproliferative activity of the compounds of the present disclosure for MV-4-11 cells was determined through the above test, and the cell growth inhibition rate for each sample well was calculated based on the raw data.
as §1

[3] = molecular target: T2, BRD4 (Homo sapiens, UniProt O60885); test: Degradation activity for BRD4 proteins in MV-4-11 cells (Western blot, 6 h); assay type: cell-based; settings: for DC50: read-out: DC50 of BRD4 protein degradation
T2 construct: The degradation activity for BRD4 proteins in MV-4-11 cells; host or cells: MV-4-11
Experimental: The medium of MV-4-11 (CBP60522, Cobioer) was removed, and PBS was added for rinsing once, followed by digestion with trypsin (Trypsin-EDTA (0.25%)) for 5 min. After the digestion, 10 mL of a complete medium (an IMDM medium containing 10% FBS) was added to neutralize the trypsin. The cells were then pipetted and collected, centrifuged at 1000 rpm for 5 min, and counted. The cell density was adjusted to 500,000 cells/mL. 2 mL of the cell suspension was added to a 12-well plate, and the plate was incubated in a cell incubator overnight.
The compounds of the present disclosure were dissolved in DMSO at a stock concentration of 10 mM. The compound stock solution was subjected to gradient dilution (4-fold dilution), resulting in 8 concentration points. DMSO was used as the negative control group, and the DMSO content was 0.1%. After mixing the compound with the cell suspension thoroughly, the mixture was incubated at 37° C. with 5% CO2 for 6 h.
Six hours after drug treatment, the supernatant was discarded, and the cells were washed with 1000 μL of pre-cooled PBS. 100 μL of RIPA lysis buffer (25 mM Tris-HCl, pH=7.5, 150 mM NaCl, 1% NP-40, 1 mM EDTA, pH=8.0, 1 mM PMSF, 1 mM Na3VO4, and 1× Protease Inhibitor Cocktail-P2714, Sigma) was added and placed on ice for lysis for 10 min. The lysed cell samples were collected and centrifuged at 12000 rpm at 4° C. for 30 min. The concentration of each protein sample was determined using the Pierce BCA kit for protein quantification. An appropriate amount of 5×SDS-PAGE protein loading buffer was added to the collected protein samples, and the mixtures were then heated in a metal bath at 100° C. for 10 min to fully denature the proteins. The protein samples were loaded into the SDS-PAGE gel loading wells and electrophoresed at a constant voltage of 120 V for 60 min. After the electrophoresis, the gel was transferred to a PVDF membrane using a Bio-bad transfer apparatus. After the transfer, the band was cut according to the size of the target protein and blocked with 5% BSA (prepared by dissolving 5 g of BSA in 100 mL of TBST) at room temperature for 1 h. […] The proteins were detected using the SuperSignal West Atto ultra-sensitive ECL luminescent liquid.
The degradation activity for BRD4 proteins in MV-4-11 cells by the compounds of the present disclosure was determined through the above test. The gray values of the target sample bands were read using Image J software, and the protein degradation rate for each sample well was calculated based on the raw data.
[formula] • wherein: • All raw data were processed for data analysis using GraphPad Prism 9. The concentration-response curves were obtained using non-linear four-parameter fitting, and the DC50 for the compound was calculated: […]

[4] = MV-4-11 cells, 6 h, Western blot

IC50 [1]	SMILES	DC50 [3, 4]	also measured
8.7 µM	Cn1c(=O)n(C2CCC(=O)NC2=O)c2ccc3c(c21)CNCC3 (centres unmarked) [Compound 8, 3-(1-methyl-2-oxo-1,2,6,7,8,9-hexahydro-3H-imidazo[4,5-h]isoquinolin-3-yl)piperidine-2,6-dione, reference compound]		
	Cc1sc2c(c1C)C(c1ccc(Cl)cc1)=N[C@@H](CC(=O)NCCCCCC(=O)NCc1cccc3c1ccc1c3n(C)c(=O)n1C1CCC(=O)NC1=O)c1nnc(C)n1-2 (stereo partly drawn) [Compound 3, 6-(2-((S)-4-(4-Chlorophenyl)-2,3,9-trimethyl-6H-thieno[3,2-f][1,2,4]triazolo[4,3-a][1,4]diazepin-6-yl)acetamido)-N-((3-(2,6-dioxopiperidin-3-yl)-1-methyl-2-oxo-2,3-dihydro-1H-naphtho[1,2-d]imidazol-6-yl)methyl)hexanamide]	11.2 nM	IC50 ([2]; MV-4-11 cells, 3 days, CellTiter-Glo): 14.1 nM; Dmax ([3]; MV4-11, MV-4-11 cells, 6 h, Western blot, read-out: Maximum degradation rate (%) of BRD4 protein): 74.3%
	Cc1sc2c(c1C)C(c1ccc(Cl)cc1)=N[C@@H](CC(=O)NCCCCCC(=O)NCc1ccc3ccc4c(c3c1)n(C)c(=O)n4C1CCC(=O)NC1=O)c1nnc(C)n1-2 (stereo partly drawn) [Compound 2, 6-(2-((S)-4-(4-chlorophenyl)-2,3,9-trimethyl-6H-thieno[3,2-f][1,2,4]triazolo[4,3-a][1,4]diazepin-6-yl)acetamido)-N-((3-(2,6-dioxopiperidin-3-yl)-1-methyl-2-oxo-2,3-dihydro-1H-naphtho[1,2-d]imidazol-8-yl)methyl)hexanamide]	2.19 nM	IC50 [2]: 3.8 nM; Dmax ([3]; MV4-11, read-out: Maximum degradation rate (%) of BRD4 protein): 85.6%
0.188 µM	Cn1c(=O)n(C2CCC(=O)NC2=O)c2ccc3ccccc3c21 (centres unmarked) [Compound 1, 3-(1-methyl-2-oxo-1,2-dihydro-3H-naphtho[1,2-d]imidazol-3-yl)piperidine-2,6-dione]		
